Test results as given in patent publication EP0431659B1, “Pharmaceutical compositions of tebufelone” (THE PROCTER & GAMBLE COMPANY, priority 1989, dated 1991).

Legend:
[1] = absorption from the gastrointestinal tract after peroral dosing; format: in vivo; details: dosed in conventional solid dosage forms, such as tablets or powders in capsules
[2] = water solubility of tebufelone; format: physicochemical; details: water (essentially water-insoluble)

For C#CCCCC(=O)c1cc(C(C)(C)C)c(O)c(C(C)(C)C)c1 [tebufelone, 1-[3,5-bis(1,1-dimethylethyl)-4-hydroxyphenyl]-5-hexyn-1-one], the “absorption of tebufelone from the gastrointestinal tract” value [1] was “quite low” and the solubility [2] was < 1 µg/mL.
